Source: ChEMBL document CHEMBL5727017, “N-arylmethyl sulfonamide negative modulators of NR2A” (2018)

Assay: Biological Assay: Cell Culture and plating: HEK293 cells expressing NR1/NR2A (Chantest, Cleveland, Ohio) were grown to 70-80% confluency as an adherent monolayer in standard tissue culture flasks at 37° C., 5% CO2 per supplier's instructions. NR2A expression was induced by incubation with 0.3-0.4 μg/ml tetracycline in the presence of 4 mM ARL-15896 for 18-24 hours under the same growth conditions, then transferred to 30° C. for another 3-5 hours.After induction, cell culture medium was removed and cells were rinsed once with Ca2+ and Mg2+-free Dulbecco's phosphate buffered saline. Cells were then removed from the flask using TrypLE Express (Life Technologies) according to the manufacturer's instructions and collected to 50 ml centrifuge tubes. Following two washes in Ca2+/Mg2+-free HBSS with 20 mM HEPES (HHnoCa), cells were counted and viability assessed using trypan blue. To load cells with Ca2+-sensitive dye, they were resuspended in fluo-8 plus Component B (AAT Bioquest Products) diluted in HHnoCa and incubated 15 minutes at 37° C., followed by 30 minutes at room temp (in dark). Cells were then washed and resuspended in HHnoCa to remove extracellular dye and plated in 384-well plates (Falcon, uncoated) at 20,000-30,000 cells/well in a final volume of 25 μL/well.

Compound: Cc1ncc(CNC(=O)c2ccc(CNS(=O)(=O)c3c(C)noc3C)cn2)s1
- IC50: 10 µM
